# Reference: patent US12521415B2, “Accelerating repair of mucosal injury using gold(III) compounds” (University of Kentucky Research Foundation, priority 2020, dated 2026)
# System: normal human colonic biopsies
# Assay: Western blot of human colonic biopsies incubated with AuPhos
# Format: cell-based
# Experimental: FIG. 14A Normal human colonic biopsies were incubated a^t 4° C. with AuPhos×3 hrs and membrane fractions examined for mitochondrial complexes expression by WB. FIG. 14B TNF-stimulated colonic NCM460 cells were treated overnight with AuPhos at concentrations indicated. WB for markers indicated are shown in nuclear and membranous protein fractions. FIG. 14C Markers of PI3K pathway were probed in nuclear and cytosolic fractions of AuPhos-treated NCM460 cells (treated with TNF). FIG. 14D NCM460 cell were treated overnight with TNF and probed for the ROS-induced P-PTEN, which inactivates PTEN and activates PI3K.
# Control or DSS colitis mice were gavaged with vehicle (−) or AuPhos (+) (as in FIG. 2) and sacrificed on D14. WB of isolated IEC proteins indicated are shown in nuclear and membranous protein fractions along with densitometry. (#mice=4 for each condition). *p<0.04. FIG. 16E. Normal human colonic biopsies were incubated at 4° C. with AuPhos×3 hrs. Membranous and nuclear fractions examined for indicated proteins by WB.
# The effects of AuPhos in Px-accelerated IL-10KO mice by beginning treatment on D21 (7D after cessation of Px) when colitis is severe is shown in FIG. 13A. AuPhos-induced mitochondrial biogenesis and PI3K signaling. […]
compound,measurement,setting,value
[Cl][Au]1([c]2ccccc2Cc2ccccn2)[P](c2ccccc2)(c2ccccc2)c2ccccc2[P]1(c1ccccc1)c1ccccc1 [AuPhos],mitochondrial complex levels,"fresh human biopsies, dose range of AuPhos, after 3 h, WB",rapid increased in complexes
same,mitochondrial complex levels and downstream signaling,"human biopsies, 4° C., AuPhos x3 hrs, WB (FIG. 16E)",increases mitochondrial complex levels and downstream signaling
